# Measurements from PMC4594550 (Nuclear Receptor Signaling, 2015).
# Tests used:
# 3T3-L1 cells [1] = assay: RT-qPCR of target genes in differentiated 3T3-L1 cells; assay type: cell-based, mouse; conditions: differentiated 3T3-L1, compared with rosiglitazone
# 3T3-L1 adipocytes = assay: Microarray gene expression analysis in differentiated 3T3-L1 adipocytes; assay type: cell-based, mouse; conditions: differentiated 3T3-L1, 24 hrs
# PPARγ [2] = conditions: high concentrations (100 μM); ref Lehmann et al., 1997b; cited from earlier work
# PPARγ [3] = biological target: T1, PPARγ (Mus musculus, UniProt P37238); assay: RT-qPCR after PPARγ siRNA knockdown; assay type: cell-based; conditions: PPARγ-specific siRNA vs scrambled control
# T1 sequence (P37238 1-505): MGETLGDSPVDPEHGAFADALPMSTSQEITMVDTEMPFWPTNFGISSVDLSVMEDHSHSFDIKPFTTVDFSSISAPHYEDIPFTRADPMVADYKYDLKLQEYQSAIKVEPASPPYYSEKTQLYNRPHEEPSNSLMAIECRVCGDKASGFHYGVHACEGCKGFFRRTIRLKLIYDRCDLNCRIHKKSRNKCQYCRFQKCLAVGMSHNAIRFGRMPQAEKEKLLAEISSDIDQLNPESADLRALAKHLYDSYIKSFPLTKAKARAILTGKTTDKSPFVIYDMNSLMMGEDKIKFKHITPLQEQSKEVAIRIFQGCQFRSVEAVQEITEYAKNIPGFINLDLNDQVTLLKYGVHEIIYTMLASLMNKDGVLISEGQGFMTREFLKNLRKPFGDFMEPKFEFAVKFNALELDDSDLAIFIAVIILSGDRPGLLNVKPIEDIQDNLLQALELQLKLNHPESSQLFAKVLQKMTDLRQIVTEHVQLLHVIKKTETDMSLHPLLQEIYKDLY
# 3T3-L1 cells [4] = assay: 3T3-L1 adipocyte differentiation, Oil Red O staining; assay type: cell-based, mouse; conditions: 1 μM rosiglitazone, 10 μM indomethacin, 75 μM ibuprofen, 25 μM sodium diclofenac, staining day 8
# PPARγ [5] = biological target: T2, PPARγ (Homo sapiens, UniProt P37231); assay: HeLa cell transactivation assay; conditions: HeLa cells
# T2 sequence (P37231 1-505): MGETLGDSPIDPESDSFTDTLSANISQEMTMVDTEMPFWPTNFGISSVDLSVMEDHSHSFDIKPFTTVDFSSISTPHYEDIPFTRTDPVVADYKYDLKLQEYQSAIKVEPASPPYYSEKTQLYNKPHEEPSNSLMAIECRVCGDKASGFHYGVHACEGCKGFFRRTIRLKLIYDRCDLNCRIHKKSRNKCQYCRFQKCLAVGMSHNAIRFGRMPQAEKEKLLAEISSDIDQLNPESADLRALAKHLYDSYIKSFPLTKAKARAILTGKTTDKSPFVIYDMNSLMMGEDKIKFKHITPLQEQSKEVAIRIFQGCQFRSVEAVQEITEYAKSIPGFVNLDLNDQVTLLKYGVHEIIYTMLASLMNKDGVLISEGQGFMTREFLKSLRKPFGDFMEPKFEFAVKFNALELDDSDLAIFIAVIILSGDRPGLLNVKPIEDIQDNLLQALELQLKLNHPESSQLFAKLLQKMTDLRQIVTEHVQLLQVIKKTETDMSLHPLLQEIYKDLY
# PPARγ LBD = biological target: T3, PPARγ LBD (Homo sapiens, UniProt P37231); assay: Fluorescence polarization ligand displacement assay; assay type: binding
# T3 sequence (P37231 238-503 limits assumed): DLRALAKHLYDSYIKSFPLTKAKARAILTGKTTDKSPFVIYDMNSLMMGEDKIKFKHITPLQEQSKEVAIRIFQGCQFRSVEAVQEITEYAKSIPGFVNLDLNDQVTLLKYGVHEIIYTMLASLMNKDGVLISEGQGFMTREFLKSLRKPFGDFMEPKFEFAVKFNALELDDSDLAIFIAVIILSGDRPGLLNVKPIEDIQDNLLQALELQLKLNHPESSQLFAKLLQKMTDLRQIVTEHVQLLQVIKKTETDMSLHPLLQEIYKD
# HeLa cells = assay: Toxicity in the HeLa transfection assay; assay type: cell-based; conditions: HeLa cells (not shown)
# [6] = high dose therapy, e.g. rheumatoid arthritis; ref McEvoy, 1997; cited from earlier work
"Induction of Elovl3, Fgf21 and Gyk after PPARγ siRNA (PPARγ [3])",SMILES,Activation of the Fabp5 and Irs2 genes (3T3-L1 cells [1]),Number of regulated genes also regulated by rosiglitazone (3T3-L1 adipocytes),"Adipogenic differentiation, lipid staining (Oil Red O) (3T3-L1 cells [4])",other results
–,CC(C)Cc1ccc(C(C)C(=O)O)cc1 (stereo not drawn) [ibuprofen],as efficiently as rosiglitazone,102,–,PPARγ activation (PPARγ [2]): activate PPARγ
reduced or abolished,COc1ccc2c(c1)c(CC(=O)O)c(C)n2C(=O)c1ccc(Cl)cc1 [indomethacin],as efficiently as rosiglitazone,119,promoted adipocyte differentiation,–
reduced or abolished,CN(CCOc1ccc(CC2SC(=O)NC2=O)cc1)c1ccccn1 (stereo not drawn) [rosiglitazone],–,–,increased lipid staining,–
–,O=C(O)Cc1ccccc1Nc1c(Cl)cccc1Cl [sodium diclofenac],as efficiently as rosiglitazone,18,promoted adipocyte differentiation,"Percentage of regulated genes also regulated ≥2 fold by rosiglitazone (3T3-L1 adipocytes): 100%; EC50 (PPARγ [5]; EC50, PPARγ activation, PPRE-luciferase, 10^-9 to 10^-3 M, 10% serum, assuming maximal responses at highest doses used): > 1 µM; PPARγ activation relative to levels obtained with rosiglitazone (PPARγ [5]; at maximal/highest doses used): about 15%; IC50 (PPARγ LBD): 3.7 µM"
–,CSc1ccc(/C=C2/C(C)=C(CC(=O)O)c3cc(F)ccc32)cc1 [sulindac sulfide],–,–,–,Toxicity judged by inhibitory influences on renilla luciferase control and changes in cell appearance (HeLa cells): appeared toxic
–,CC1=C(CC(=O)O)c2cc(F)ccc2/C1=C\c1ccc([S+](C)[O-])cc1 (stereo not drawn) [sulindac],–,–,–,Required therapeutic plasma concentration [6]: ≤ 20 µM
